Assay results from the supplement of paper PMC10307832.

Key:
Assay in all cases: relative viability (nuclei count vs DMSO), 5 days (fraction); higher = more cells survive
[1] = compound: O=C(Nc1cc(C(F)(F)F)cc(C(F)(F)F)c1)c1cc(Cl)ccc1O [IMD-0354] + O=C(c1cc(Cc2n[nH]c(=O)c3ccccc23)ccc1F)N1CCN(C(=O)C2CC2)CC1 [Olaparib] (partner 8 µM)
Outline: (§1)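 For relative viability, nuclei counts in treated wells were divided by those in vehicle wells. Lung cancer cell lines had been pin-tool dosed in 1536-well plates the day after seeding and cultured for 5 days, then fixed and stained in one step (final 0.05% Triton X-100, 1% formaldehyde, 1 ug/ml Hoechst) and imaged at 4×. Doses were one drug alone or a fixed anchor-drug dose plus five library-drug doses (not always all listed) in √10 steps, and values are duplicate-plate medians.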

[2] = compound: O=C(Nc1cc(C(F)(F)F)cc(C(F)(F)F)c1)c1cc(Cl)ccc1O [IMD-0354] + Nc1ncn([C@H]2C[C@H](O)[C@@H](CO)O2)c(=O)n1 [Decitabine] (partner 2 µM)
Outline: as §1

[3] = compound: O=C(Nc1cc(C(F)(F)F)cc(C(F)(F)F)c1)c1cc(Cl)ccc1O [IMD-0354] + COc1cccc2cc(-c3nc([C@H]4CC[C@H](C(=O)O)CC4)n4ncnc(N)c34)[nH]c12 [OSI-027] (partner 0.5 µM)
Outline: as §1

[4] = compound: Cc1cnc(CNC(=O)c2c(=O)c3ccc(N4CCCN(C)CC4)nc3n3c2sc2ccccc23)cn1 [CX-5461] + Nc1nc2[nH]cc(CCc3ccc(C(=O)N[C@@H](CCC(=O)O)C(=O)O)cc3)c2c(=O)[nH]1 [Pemetrexed] (partner 0.2 µM)
Outline: as §1

Row | Cell Line | relative viability ([1]; first compound 0.04 µM) | relative viability ([1]; first compound 0.1265 µM) | relative viability ([1]; first compound 0.4 µM) | relative viability ([1]; first compound 1.265 µM) | relative viability ([1]; first compound 4 µM) | relative viability ([2]; first compound 0.04 µM) | relative viability ([2]; first compound 0.1265 µM) | relative viability ([2]; first compound 0.4 µM) | relative viability ([2]; first compound 1.265 µM) | relative viability ([2]; first compound 4 µM) | relative viability ([3]; first compound 0.04 µM) | relative viability ([3]; first compound 0.1265 µM) | relative viability ([3]; first compound 0.4 µM) | relative viability ([3]; first compound 1.265 µM) | relative viability ([3]; first compound 4 µM) | relative viability ([4]; first compound 0.01 µM) | relative viability ([4]; first compound 0.03162 µM) | relative viability ([4]; first compound 0.1 µM) | relative viability ([4]; first compound 0.3162 µM) | relative viability ([4]; first compound 1 µM)
1 | NCI-H1395 | 0.449 | 0.464 | 0.466 | 0.361 | 0.337 | 0.74 | 0.645 | 0.713 | 0.358 | 0.402 | 0.69 | 0.755 | 0.651 | 0.43 | 0.256 | 0.835 | 0.846 | 0.816 | 0.437 | 0.488
2 | NCI-H1437 | 0.669 | 0.574 | 0.376 | 0.218 | 0.232 | 0.635 | 0.538 | 0.34 | 0.257 | 0.229 | 0.915 | 0.763 | 0.544 | 0.22 | 0.25 | 0.31 | 0.307 | 0.268 | 0.307 | 0.29
3 | COR-L23 | 0.298 | 0.32 | 0.286 | 0.104 | 0.127 | 0.402 | 0.443 | 0.339 | 0.141 | 0.146 | 0.767 | 0.679 | 0.397 | 0.145 | 0.178 | 0.283 | 0.187 | 0.207 | 0.157 | 0.201
4 | ABC-1 | 1.13 | 0.823 | 0.404 |  | 0.427 | 1.23 | 0.985 | 0.851 |  | 0.36 | 0.517 | 0.331 | 0.369 | 0.207 | 0.23 |  |  |  |  | 
5 | SW 900 | 0.928 | 0.948 | 0.66 | 0.212 | 0.258 | 0.432 | 0.414 | 0.397 | 0.208 | 0.213 | 0.64 | 0.674 | 0.308 | 0.263 | 0.248 | 0.437 | 0.52 |  | 0.521 | 0.441
6 | NCI-H838 | 0.778 | 0.73 | 0.426 | 0.253 | 0.302 | 0.482 | 0.443 | 0.345 | 0.243 | 0.272 | 0.422 | 0.334 | 0.294 | 0.209 | 0.211 | 0.251 | 0.248 | 0.244 | 0.232 | 0.241
7 | NCI-H1648 | 0.528 | 0.484 | 0.565 | 0.677 | 0.225 | 0.526 | 0.475 | 0.401 | 0.374 | 0.272 |  | 0.27 | 0.287 | 0.244 | 0.278 | 0.631 | 0.847 | 0.686 | 0.832 | 0.494
8 | A549 | 0.365 | 0.555 | 0.108 | 0.0898 | 0.0605 | 0.269 | 0.229 | 0.249 | 0.296 | 0.1 |  |  |  |  |  |  |  |  |  | 
9 | A-427 | 0.847 | 0.809 | 0.494 | 0.128 | 0.15 | 0.709 | 0.593 | 0.522 | 0.15 | 0.175 | 0.66 | 0.459 | 0.288 | 0.127 | 0.135 | 0.98 | 0.908 | 0.927 | 0.967 | 0.714
10 | NCI-H1792 | 0.393 | 0.389 | 0.236 | 0.21 | 0.172 | 0.675 | 0.38 | 0.387 | 0.358 | 0.174 | 0.791 | 0.701 | 0.35 | 0.394 | 0.418 | 0.897 | 0.929 | 0.964 | 1.02 | 0.296
11 | LCLC-97TM1 | 0.407 | 0.387 | 0.213 | 0.154 | 0.141 | 0.232 | 0.257 | 0.199 | 0.162 | 0.115 | 0.519 | 0.489 | 0.265 | 0.186 | 0.148 | 0.178 | 0.193 | 0.196 | 0.103 | 0.155
12 | NCI-H1703 | 0.405 | 0.468 | 0.358 | 0.108 | 0.0868 |  |  |  |  |  |  |  |  |  |  |  |  |  |  | 
13 | LCLC-103H | 0.79 | 0.739 | 0.566 | 0.45 | 0.379 | 0.727 | 0.737 | 0.635 | 0.546 | 0.293 | 0.592 | 0.471 | 0.375 | 0.295 | 0.196 | 0.426 | 0.482 | 0.46 | 0.401 | 0.4
14 | PC-3 [JPC-3] | 1.25 | 1.16 | 0.839 | 0.374 | 0.38 | 0.984 | 0.813 | 0.756 | 0.481 | 0.336 | 0.845 | 0.708 | 0.605 | 0.344 | 0.282 | 1.18 |  | 1.11 | 1.15 | 0.86
15 | Calu-6 | 0.555 | 0.57 | 0.428 | 0.138 | 0.111 |  |  |  |  |  |  |  |  |  |  |  |  |  |  | 
16 | EBC-1 | 0.616 | 0.661 | 0.503 | 0.183 | 0.171 |  |  |  |  |  |  |  |  |  |  |  |  |  |  | 
17 | NCI-H1299 | 0.767 | 0.969 | 0.505 | 0.193 | 0.16 |  |  |  |  |  |  |  |  |  |  |  |  |  |  | 
18 | NCI-H2228 | 0.888 | 0.586 | 0.482 | 0.274 | 0.172 |  |  |  |  |  | 0.586 | 0.431 | 0.348 | 0.23 | 0.142 | 0.355 | 0.369 | 0.312 | 0.305 | 0.182
19 | IA-LM | 0.829 | 0.729 | 0.521 | 0.161 | 0.133 |  |  |  |  |  |  |  |  |  |  |  |  |  |  | 
20 | NCI-H727 | 0.574 | 0.633 | 0.617 | 0.524 | 0.318 | 0.827 | 0.864 | 0.788 | 0.502 | 0.405 | 0.93 | 0.585 | 0.415 | 0.395 | 0.312 |  |  |  |  | 
21 | CAL-12T | 0.728 | 0.705 | 0.492 | 0.181 | 0.203 |  |  |  |  |  | 0.807 | 0.463 | 0.385 | 0.193 | 0.17 | 1.29 | 1.29 | 1.09 | 1.1 | 0.86
